Assay results reported in US9428507B2, “Compounds for the treatment of malaria” (The Broad Institute, Inc., priority 2013, dated 2016).
pEC50: −log10 of the molar value. Like-named read-outs stand apart in the source and are kept apart here.

System: Dd2 strain of P. falciparum
Test: Activity against the Dd2 strain of P. falciparum (SYBR Green I, 72-h incubation)
Type: cell-based
Conditions: read-out: EC^50 Dd2
Outline: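 SYBR Green I signal (ex 485, em 530 nm) measured growth, read after 24 h dark staining in saponin/Triton lysis buffer. Before that, compound-exposed Dd2 cultures (1% parasitemia, 1.0% hematocrit, 0.125% DMSO) grew 72 h at 37° C in low-oxygen gas. Background control: 20 μM mefloquine.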

[1] = Plasmodium falciparum, DD2, 72 h

SMILES	pEC50 [1]	pEC50
COc1ccc(NC(=O)N2CCC3(CC2)CN(C(=O)C2CCC2)[C@H](CO)c2c3c3ccc(OC)cc3n2C)cc1 [Compound 86, (S)-2′-(cyclobutanecarbonyl)-1′-(hydroxymethyl)-7′-methoxy-N-(4-methoxyphenyl)-9′-methyl-1′,2′,3′,9′-tetrahydrospiro [piperidine-4,4′-pyrido[3,4-b]indole]-1-carboxamide]	7.02	–
COc1ccc2c3c([nH]c2c1)[C@H](CO)N(Cc1ccc(Cl)cc1)CC31CCN(Cc2nccs2)CC1 [Compound 87, (R)-(2′-(4-chlorobenzyl)-7′-methoxy-1-(thiazol-2-ylmethyl)-1′,2′,3′,9′-tetrahydrospiro [piperidine-4,4′-pyrido[3,4-b]indol]-1′-yl)methanol]	7.11	–
COc1ccc2c3c(n(C)c2c1)[C@H](CO)N(Cc1ccc(Cl)cc1)CC31CCN(CC2CC2)CC1 [Compound 88, (R)-(2′-(4-chlorobenzyl)-1-(cyclopropylmethyl)-7′-methoxy-9′-methyl-1′,2′,3′,9′-tetrahydrospiro [piperidine-4,4′-pyrido[3,4-b]indol]-1′-yl)methanol]	–	5.93
COc1ccc2c3c([nH]c2c1)[C@H](CO)N(C(=O)CN(C)C)CC31CCN(CC2CCCCC2)CC1 [Compound 89, (R)-1-(1-(cyclohexylmethyl)-1′-(hydroxymethyl)-7′-methoxyspiro [piperidine-4,4′-pyrido[3,4-b]indol]-2′(1′ H,3′H,9′H)-yl)-2-(dimethylamino)ethanone]	6.36	–
COc1ccc2c3c(n(C)c2c1)[C@@H](CO)N(C(=O)CN(C)C)CC31CCN(Cc2cccnc2)CC1 [Compound 90, (S)-2-(dimethylamino)-1-(1′-(hydroxymethyl)-7′-methoxy-9′-methyl-1-(pyridin-3-ylmethyl)spiro [piperidine-4,4′-pyrido[3,4-b]indol]-2′(1′H,3′H,9′H)-yl)ethanone]	5.58	–
COc1ccc2c3c(n(C)c2c1)[C@H](CO)NCC31CCN(CC2CCCC2)CC1 [Compound 91, (R)-(1-(cyclopentylmethyl)-7′-methoxy-9′-methyl-1′,2′,3′,9′-tetrahydrospiro[piperidine-4,4′-pyrido[3,4-b]indol]-1′-yl)methanol]	6.32	–
CCCN1CCC2(CC1)CN(Cc1ccccc1OC)[C@H](CO)c1c2c2ccc(OC)cc2n1C [Compound 92, (S)-(7′-methoxy-2′-(2-methoxybenzyl)-9′-methyl-1-propyl-1′,2′,3′,9′-tetrahydrospiro [piperidine-4,4′-pyrido[3,4-b]indol]-1′-yl) methanol]	6.17	–
COc1ccc2c3c(n(C)c2c1)[C@@H](CO)N(C(=O)C1CC1)CC31CN(C(=O)Nc2cccc(F)c2)C1 [Compound 93, (S)-2′-(cyclopropanecarbonyl)-N-(3-fluorophenyl)-1′-(hydroxymethyl)-7′-methoxy-9′-methyl-1′,2′,3′,9′-tetrahydrospiro [azetidine-3,4′-pyrido[3,4-b]indole]-1-carboxamide]	6.71	–
COc1ccc2c3c([nH]c2c1)[C@@H](CO)N(Cc1ccccc1)CC31CCN(Cc2cncnc2)CC1 [Compound 94, (S)-(2′-benzyl-7′-methoxy-1-(pyrimidin-5-ylmethyl)-1′,2′,3′,9′-tetrahydrospiro [piperidine-4,4′-pyrido[3,4-b]indol]-1′-yl) methanol]	6.03	–
COc1ccc2c3c(n(C)c2c1)[C@H](CO)N(CC1CC1)CC31CN(C(=O)c2ccc3c(c2)OCO3)C1 [Compound 95, (R)-benzo[d] [1,3]dioxol-5-yl(2′-(cyclopropylmethyl)-1′-(hydroxymethyl)-7′-methoxy-9′-methyl-1′,2′,3′,9′-tetrahydrospiro [azetidine-3,4′-pyrido[3,4-b]indol]-1-yl)methanone]	5.90	–
COc1ccc2c3c(n(C)c2c1)[C@H](CO)N(C(=O)Nc1ccc(F)cc1)CC31CCN(C)CC1 [Compound 96, (R)-N-(4-fluorophenyl)-1′-(hydroxymethyl)-7′-methoxy-1,9′-dimethyl-3′,9′-dihydrospiro[piperidine-4,4′-pyrido[3,4-b]indole]-2′(1′H)-carboxamide]	5.54	–
COc1ccc(CN2CC3(C2)CN(C(=O)CN(C)C)[C@H](CO)c2[nH]c4cc(OC)ccc4c23)cc1 [Compound 97, (S)-2-(dimethylamino)-1-(1′-(hydroxymethyl)-7′-methoxy-1-(4-methoxybenzyl)spiro[azetidine-3,4′-pyrido[3,4-b]indol]-2′(1′H,3′H,9′H)-yl)ethanone]	5.78	–
CCCC(=O)N1CCC2(CC1)CN(S(=O)(=O)c1ccc(C)cc1)[C@@H](CO)c1[nH]c3cc(OC)ccc3c12 [Compound 98, (R)-1-(1′-(hydroxymethyl)-7′-methoxy-2′-tosyl-1′,2′,3′,9′-tetrahydrospiro[piperidine-4,4′-pyrido[3,4-b]indol]-1-yl)butan-1-one]	7.01	–
COc1ccc2c3c(n(C)c2c1)[C@@H](CO)N(C(=O)C1CCCC1)CC31CN(C(=O)Nc2cccc(F)c2)C1 [Compound 99, (S)-2′-(cyclopentanecarbonyl)-N-(3-fluorophenyl)-1′-(hydroxymethyl)-7′-methoxy-9′-methyl-1′,2′,3′,9′-tetrahydrospiro [azetidine-3,4′-pyrido[3,4-b]indole]-1-carboxamide]	5.73	–
COc1ccc2c3c(n(C)c2c1)[C@@H](CO)N(C(=O)C1CCCC1)CC31CCN(C(=O)Nc2cccc(F)c2)CC1 [Compound 100, (S)-2′-(cyclopentanecarbonyl)-N-(3-fluorophenyl)-1′-(hydroxymethyl)-7′-methoxy-9′-methyl-1′,2′,3′,9′-tetrahydrospiro[piperidine-4,4′-pyrido[3,4-b]indole]-1-carboxamide]	6.38	–
COc1ccc2c3c(n(C)c2c1)[C@@H](CO)N(C(=O)Nc1ccc(F)cc1)CC31CCN(Cc2ccccn2)CC1 [Compound 101, (S)-N-(4-fluorophenyl)-1′-(hydroxymethyl)-7′-methoxy-9′-methyl-1-(pyridin-2-ylmethyl)-3′,9′-dihydrospiro [piperidine-4,4′-pyrido[3,4-b]indole]-2′(1′H)-carboxamide]	5.69	–
COc1ccc2c3c([nH]c2c1)[C@H](CO)NCC31CCN(C(=O)Nc2ccc3c(c2)OCO3)CC1 [Compound 102, (R)-N-(benzo[d] [1,3]dioxol-5-yl)-1′-(hydroxymethyl)-7′-methoxy-1′,2′,3′,9′-tetrahydrospiro [piperidine-4,4′-pyrido[3,4-b]indole]-1-carboxamide]	6.31	–
COc1ccc2c3c([nH]c2c1)[C@H](CO)N(C(=O)C1CCCCC1)CC31CCN(Cc2nccs2)CC1 [Compound 103, (R)-cyclohexyl (1′-(hydroxymethyl)-7′-methoxy-1-(thiazol-2-ylmethyl)spiro[piperidine-4,4′-pyrido[3,4-b]indol]-2′(1′H,3′H,9′H)-yl)methanone]	6.74	–
COc1ccc2c3c([nH]c2c1)[C@H](CO)N(C(=O)C1CCOCC1)CC31CCN(Cc2nccs2)CC1 [Compound 104, (R)-(1′-(hydroxymethyl)-7′-methoxy-1-(thiazol-2-ylmethyl)spiro[piperidine-4,4′-pyrido[3,4-b]indol]-2′(1′H,3′H,9′H)-yl)(tetrahydro-2H-pyran-4-yl)methanone]	6.33	–
